Source: ChEMBL document CHEMBL1146031, “N-acylated sulfonamide sodium salt: a prodrug of choice for the bifunctional 2-hydroxymethyl-4-(5-phenyl-3-trifluoromethyl-pyrazol-1-yl) benzenesulfonamide class of COX-2 inhibitors” (Bioorg Med Chem Lett, 2006)
Where “and” joins values, the source holds several entries; their conditions need not be identical. Equal values may be shown once. Calls of active or inactive are those of the source. The rule behind the calls is not given here.

Experiments:
Rattus norvegicus [1] = assay: Anti-inflammatory activity in orally dosed Wistar rat assessed as reduction of carrageenan-induced paw edema at 30 mg/kg, po; type: functional
[2] = AUC in Wistar rat at 100 mg/kg, po; type: ADME, organism-based; design: dose 100 mg/kg, route oral; conditions: plasma
[3] = Cmax in Wistar rat at 100 mg/kg, po; type: ADME, organism-based; design: dose 100 mg/kg, route oral; conditions: in vivo
Rattus norvegicus [4] = assay: Anti-inflammatory activity in orally dosed Wistar rat assessed as reduction of carrageenan-induced paw edema; type: functional; conditions: po
[5] = Tmax in Wistar rat at 100 mg/kg, po; type: ADME, organism-based; design: dose 100 mg/kg, route oral; conditions: in vivo
[6] = biological target: T1, Prostaglandin G/H synthase 2 (Homo sapiens) (UniProt P35354); assay: Inhibition of human recombinant COX2 expressed in sf9 cells infected with baculovirus at 10 uM
T1 sequence (whole entry): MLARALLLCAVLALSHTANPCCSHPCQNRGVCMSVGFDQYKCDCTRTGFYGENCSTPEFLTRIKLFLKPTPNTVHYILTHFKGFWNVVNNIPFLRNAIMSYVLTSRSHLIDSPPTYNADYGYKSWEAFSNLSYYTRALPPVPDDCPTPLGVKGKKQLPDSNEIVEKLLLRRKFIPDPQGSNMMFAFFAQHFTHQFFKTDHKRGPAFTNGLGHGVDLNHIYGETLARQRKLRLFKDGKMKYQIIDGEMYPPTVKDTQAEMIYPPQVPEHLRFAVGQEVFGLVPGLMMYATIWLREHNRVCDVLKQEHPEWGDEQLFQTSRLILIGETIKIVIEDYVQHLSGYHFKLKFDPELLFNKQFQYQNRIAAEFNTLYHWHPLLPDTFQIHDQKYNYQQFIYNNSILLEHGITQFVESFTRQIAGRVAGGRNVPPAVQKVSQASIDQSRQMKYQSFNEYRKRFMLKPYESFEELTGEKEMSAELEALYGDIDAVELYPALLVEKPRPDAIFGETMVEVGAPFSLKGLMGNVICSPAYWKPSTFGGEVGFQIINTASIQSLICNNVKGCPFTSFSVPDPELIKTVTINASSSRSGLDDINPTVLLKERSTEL

[7] = biological target: Prostaglandin G/H synthase 1 (Ovis aries) (UniProt P05979); assay: Inhibition of microsomal COX1 at 10 uM
Prostaglandin G/H synthase 1 (Ovis aries), sequence (P05979 whole entry, looked up): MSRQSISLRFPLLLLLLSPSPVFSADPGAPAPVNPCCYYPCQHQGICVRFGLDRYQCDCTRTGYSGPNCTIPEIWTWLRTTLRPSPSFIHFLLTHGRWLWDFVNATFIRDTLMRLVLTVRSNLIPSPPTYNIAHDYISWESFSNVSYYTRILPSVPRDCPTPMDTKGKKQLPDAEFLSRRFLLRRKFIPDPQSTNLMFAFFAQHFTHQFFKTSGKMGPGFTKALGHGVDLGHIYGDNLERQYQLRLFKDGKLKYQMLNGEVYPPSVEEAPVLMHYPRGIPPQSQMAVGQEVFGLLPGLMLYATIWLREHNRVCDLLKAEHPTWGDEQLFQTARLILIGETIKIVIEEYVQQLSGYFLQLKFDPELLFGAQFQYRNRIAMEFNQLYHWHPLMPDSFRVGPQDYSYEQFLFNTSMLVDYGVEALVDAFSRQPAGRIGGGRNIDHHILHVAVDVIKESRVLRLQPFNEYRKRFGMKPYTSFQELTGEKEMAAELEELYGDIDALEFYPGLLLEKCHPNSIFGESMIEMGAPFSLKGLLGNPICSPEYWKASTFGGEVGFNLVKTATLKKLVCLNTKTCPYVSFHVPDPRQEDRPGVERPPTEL

[8] = Terminal half life in Wistar rat at 100 mg/kg, po; type: ADME, organism-based; design: dose 100 mg/kg, route oral; conditions: in vivo
[9] = AUC (0-infinity) in Wistar rat at 100 mg/kg, po; type: ADME, organism-based; design: time infinity, dose 100 mg/kg, route oral; conditions: plasma
Rattus norvegicus [10] = assay: Anti-inflammatory activity in orally dosed Wistar rat assessed as reduction of carrageenan-induced paw edema at 3 mg/kg, po; type: functional, organism-based; design: dose 3 mg/kg
Rattus norvegicus [11] = assay: Anti-inflammatory activity in orally dosed Wistar rat assessed as reduction of carrageenan-induced paw edema at 10 mg/kg, po; type: functional, organism-based; design: dose 10 mg/kg
Rattus norvegicus [12] = assay: Anti-inflammatory activity in orally dosed Wistar rat assessed as reduction of carrageenan-induced paw edema at 1 mg/kg, po; type: functional, organism-based; design: dose 1 mg/kg

Row | SMILES | inhibition at 30 mg/kg (Rattus norvegicus [1]) | ED50 (Rattus norvegicus [4]) | inhibition [6] | inhibition [7] | further results
1 | NS(=O)(=O)c1ccc(-n2nc(C(F)(F)F)cc2-c2ccc(Br)cc2)cc1CO | 35% |  |  |  | 
2 | COc1ccc(-c2cc(C(F)F)nn2-c2ccc(S(N)(=O)=O)c(CO)c2)cc1C |  | 18.5 mg/kg |  |  | AUC [2]: 2.4 µg·h/mL; Cmax [3]: 700 ng/mL; Tmax [5]: 2.25 h
3 | CCC(=O)[N-]S(=O)(=O)c1ccc(-n2nc(C(F)(F)F)cc2-c2ccc3c(c2)CCC3)cc1COC(=O)CC.[Na+] | 41% |  |  |  | 
4 | CCC(=O)OCc1cc(-n2nc(C(F)(F)F)cc2-c2ccc(Br)cc2)ccc1S(N)(=O)=O |  | 17 mg/kg | 65% | 0% | 
5 | CCC(=O)[N-]S(=O)(=O)c1ccc(-n2nc(C(F)(F)F)cc2-c2ccc(Br)cc2)cc1CO.[Na+] |  | 7.2 mg/kg | 23% | 0% | 
6 | CCC(=O)OCc1cc(-n2nc(C(F)(F)F)cc2-c2ccc3c(c2)CCO3)ccc1S(N)(=O)=O |  | 8.5 mg/kg | 61% | 0% | 
7 | NS(=O)(=O)c1ccc(-n2nc(C(F)(F)F)cc2-c2ccc3c(c2)CCO3)cc1CO |  | 22.3 mg/kg |  |  | 
8 | CCC(=O)OCc1cc(-n2nc(C(F)F)cc2-c2ccc(Br)cc2)ccc1S(N)(=O)=O | 40% |  | 55% | 5% | 
9 | CCC(=O)[N-]S(=O)(=O)c1ccc(-n2nc(C(F)(F)F)cc2-c2ccc(SC)cc2)cc1COC(=O)CC.[Na+] | 40% |  |  |  | 
10 | CCC(=O)[N-]S(=O)(=O)c1ccc(-n2nc(C(F)(F)F)cc2-c2ccc(Br)cc2)cc1COC(=O)CC.[Na+] |  | 12.5 mg/kg |  |  | 
11 | CCC(=O)NS(=O)(=O)c1ccc(-n2nc(C(F)(F)F)cc2-c2ccc3c(c2)CCC3)cc1COC(=O)CC [listing 1 of 2 here] |  |  |  |  | Inhibition (Rattus norvegicus [4]; 30 mg/kg): 64%
12 | CCC(=O)NS(=O)(=O)c1ccc(-n2nc(C(F)(F)F)cc2-c2ccc(OC)c(C)c2)cc1COC(=O)CC [listing 1 of 2 here] |  |  | 10% and 5% | 0% | 
13 | CCC(=O)OCc1cc(-n2nc(C(F)(F)F)cc2-c2ccc(OC)c(C)c2)ccc1S(N)(=O)=O |  | 10.9 mg/kg |  | 12% | 
14 | Cc1ccc(-c2cc(C(F)(F)F)nn2-c2ccc(S(N)(=O)=O)cc2)cc1 [CELECOXIB] |  | 6.7 mg/kg |  |  | 
15 | CCC(=O)NS(=O)(=O)c1ccc(-n2nc(C(F)F)cc2-c2ccc(Br)cc2)cc1COC(=O)CC [listing 1 of 2 here] |  |  | 12% and 25% | 0% and 1% | 
16 | CCC(=O)[N-]S(=O)(=O)c1ccc(-n2nc(C(F)F)cc2-c2ccc(Br)cc2)cc1CO.[Na+] |  | 5.6 mg/kg | 14% | 0% | half-life [8]: 445 min; AUC(0-inf) [9]: 321 µg·h/mL; AUC [2]: 289 µg·h/mL; Cmax [3]: 28400 ng/mL; Tmax [5]: 2.85 h
17 | CCCC(=O)[N-]S(=O)(=O)c1ccc(-n2nc(C(F)(F)F)cc2-c2ccc(C)cc2)cc1.[Na+] |  | 6.64 mg/kg | 2% | 0% | 
18 | CCC(=O)NS(=O)(=O)c1ccc(-n2nc(C(F)(F)F)cc2-c2ccc(Br)cc2)cc1COC(=O)CC [listing 1 of 2 here] |  |  | 25% and 35% | 0% | 
19 | COc1ccc(-c2cc(C(F)(F)F)nn2-c2ccc(S(N)(=O)=O)c(CO)c2)cc1C |  | 21.7 mg/kg |  |  | half-life [8]: 398 min; AUC(0-inf) [9]: 112 µg·h/mL; AUC [2]: 73.7 µg·h/mL; Cmax [3]: 6370 ng/mL; Tmax [5]: 3.5 h
20 | CCC(=O)NS(=O)(=O)c1ccc(-n2nc(C(F)(F)F)cc2-c2ccc3c(c2)CCC3)cc1COC(=O)CC [listing 2 of 2 here] |  |  |  | 0% | Activity (Rattus norvegicus [10]): inactive; Activity (Rattus norvegicus [11]): inactive; Activity (Rattus norvegicus [12]): inactive
21 | CSc1ccc(-c2cc(C(F)(F)F)nn2-c2ccc(S(N)(=O)=O)c(CO)c2)cc1 | 47% |  |  |  | 

Row | SMILES | inhibition at 30 mg/kg (Rattus norvegicus [1]) | ED50 (Rattus norvegicus [4]) | inhibition [6] | inhibition [7] | further results
22 | CCC(=O)NS(=O)(=O)c1ccc(-n2nc(C(F)(F)F)cc2-c2ccc(OC)c(C)c2)cc1COC(=O)CC [listing 2 of 2 here] | 48% |  |  |  | 
23 | CCC(=O)NS(=O)(=O)c1ccc(-n2nc(C(F)(F)F)cc2-c2ccc3c(c2)CCO3)cc1COC(=O)CC [listing 1 of 2 here] |  |  | 2% and 12% | 0% | 
24 | CCC(=O)NS(=O)(=O)c1ccc(-n2nc(C(F)F)cc2-c2ccc(OC)c(C)c2)cc1COC(=O)CC [listing 1 of 2 here] |  |  |  | 0% | 
25 | CCC(=O)NS(=O)(=O)c1ccc(-n2nc(C(F)F)cc2-c2ccc(Br)cc2)cc1COC(=O)CC [listing 2 of 2 here] | 45% |  |  |  | 
26 | NS(=O)(=O)c1ccc(-n2nc(C(F)F)cc2-c2ccc(Br)cc2)cc1CO | 42% |  |  |  | half-life [8]: 451 min; AUC(0-inf) [9]: 265 µg·h/mL; AUC [2]: 239 µg·h/mL; Cmax [3]: 20800 ng/mL; Tmax [5]: 2.67 h
27 | CCC(=O)[N-]S(=O)(=O)c1ccc(-n2nc(C(F)F)cc2-c2ccc(OC)c(C)c2)cc1CO.[Na+] |  | 6.3 mg/kg | 13% | 0% | half-life [8]: 355 min; AUC(0-inf) [9]: 114 µg·h/mL; AUC [2]: 106 µg·h/mL; Cmax [3]: 7540 ng/mL; Tmax [5]: 2.82 h
28 | CCC(=O)[N-]S(=O)(=O)c1ccc(-n2nc(C(F)(F)F)cc2-c2ccc3c(c2)CCO3)cc1CO.[Na+] |  | 7.5 mg/kg | 25% | 5% | 
29 | CCC(=O)OCc1cc(-n2nc(C(F)(F)F)cc2-c2ccc3c(c2)CCC3)ccc1S(N)(=O)=O | 30% |  | 57% | 0% | 
30 | CCC(=O)[N-]S(=O)(=O)c1ccc(-n2nc(C(F)F)cc2-c2ccc(Br)cc2)cc1COC(=O)CC.[Na+] |  | 7.9 mg/kg |  |  | 
31 | CCC(=O)OCc1cc(-n2nc(C(F)F)cc2-c2ccc(OC)c(C)c2)ccc1S(N)(=O)=O |  | 15 mg/kg | 75% | 0% | 
32 | CCC(=O)[N-]S(=O)(=O)c1ccc(-n2nc(C(F)(F)F)cc2-c2ccc(OC)c(C)c2)cc1CO.[Na+] |  | 6.2 mg/kg | 15% | 0% | half-life [8]: 409 min; AUC(0-inf) [9]: 149 µg·h/mL; AUC [2]: 125 µg·h/mL; Cmax [3]: 9320 ng/mL; Tmax [5]: 3.78 h
33 | CCC(=O)NS(=O)(=O)c1ccc(-n2nc(C(F)(F)F)cc2-c2ccc(SC)cc2)cc1COC(=O)CC [listing 1 of 2 here] | 38% |  |  |  | 
34 | CCC(=O)[N-]S(=O)(=O)c1ccc(-n2nc(C(F)F)cc2-c2ccc(OC)c(C)c2)cc1COC(=O)CC.[Na+] | 32% |  |  |  | 
35 | CCC(=O)NS(=O)(=O)c1ccc(-n2nc(C(F)(F)F)cc2-c2ccc(Br)cc2)cc1COC(=O)CC [listing 2 of 2 here] | 37% |  |  |  | 
36 | CCC(=O)[N-]S(=O)(=O)c1ccc(-n2nc(C(F)(F)F)cc2-c2ccc3c(c2)CCO3)cc1COC(=O)CC.[Na+] | 43% |  |  |  | 
37 | CCC(=O)NS(=O)(=O)c1ccc(-n2nc(C(F)F)cc2-c2ccc(OC)c(C)c2)cc1COC(=O)CC [listing 2 of 2 here] | 42% |  |  |  | 
38 | CCC(=O)[N-]S(=O)(=O)c1ccc(-n2nc(C(F)(F)F)cc2-c2ccc(OC)c(C)c2)cc1COC(=O)CC.[Na+] | 34% |  |  |  | 
39 | CCC(=O)[N-]S(=O)(=O)c1ccc(-n2nc(C(F)(F)F)cc2-c2ccc(SC)cc2)cc1CO.[Na+] | 36% |  | 21% | 0% | 
40 | NS(=O)(=O)c1ccc(-n2nc(C(F)(F)F)cc2-c2ccc3c(c2)CCC3)cc1CO |  | 23.5 mg/kg |  |  | 
41 | CCC(=O)NS(=O)(=O)c1ccc(-n2nc(C(F)(F)F)cc2-c2ccc3c(c2)CCO3)cc1COC(=O)CC [listing 2 of 2 here] | 25% |  |  |  | 
42 | CCC(=O)NS(=O)(=O)c1ccc(-n2nc(C(F)(F)F)cc2-c2ccc(SC)cc2)cc1COC(=O)CC [listing 2 of 2 here] |  |  | 18% and 25% | 0% | 
